Reference: publication PMC12022980, “Rational Design of PROTAC Linkers Featuring Ferrocene as a Molecular Hinge to Enable Dynamic Conformational Changes” (Journal of the American Chemical Society, 2025)

Legend:
[1] = biological target: T1, VHL (Homo sapiens, UniProt P40337); assay: NanoBRET VHL target engagement, live-cell mode; format: cell-based; conditions: for IC50: HEK293 transfected with VHL-NanoLuc, live cells, tracer 1 μM
T1 construct: host or cells: HEK293, transient transfection
Text: To this end, we assessed the PROTAC cellular permeability by evaluating VHL target engagement using the Promega NanoBRET TE Intracellular E3 Ligase.[62] Current PROTAC permeability assays use artificial systems like PAMPA and Caco-2, designed for small molecules but not always effective for PROTACs due to their low permeability, high molecular weight and assay caveats (i.e., unspecific binding and low recovery).[63],[64] The NanoBRET assay is a high-throughput method validated for measuring E3 ligase engagement in live and permeabilised cells. The assay allows to rank PROTAC intracellular availability through competitive probe displacement and offers a simple workflow for prioritising compounds based on properties associated with permeability. […] Specifically, in the live-cell mode, the assay measures the apparent cellular affinity, where the plasma membrane is intact and can impede the compound’s access to its target. In the permeabilised-cell mode, the barrier posed by the plasma membrane is removed and the intrinsic affinity of the compound for target is measured. […] The ratio of potencies between live-cell and permeabilised-cell modes, referred to as the relative-binding affinity (RBA) value increases as intracellular availability decreases and is thus a metric for assessing a PROTAC̀s cellular availability. […]

[2] = ChromLogD (chromatographic); format: physicochemical; conditions: HPLC on Hypersil GOLD-C18 column, pH 7.4
Description: For the permeabilised-cell assay, 10 µL of digitonin was added, and plates were incubated in darkness for 5 minutes to allow permeabilisation. In each well 10 µL of the 10x PROTAC and vehicle control dilutions were dispensed. A 100x NanoBRET tracer solution (50 µM for VHL permeabilised-cell assay) was prepared with 100% DMSO, then diluted to a 20x solution with tracer dilution buffer. A 5 µL volume of tracer was dispensed into each well at a final concentration of 0.5 µM, and the plate was mixed at 300 RPM for 15 seconds. Finally, 50 µL of a 3x substrate solution (8.8 µL NanoBRET Nano-Glo substrate and 3,500 µL Opti-MEM) was added, and plates were incubated for 1 minute at room temperature before reading on a GloMax Discover as […]
HiBiT Lytic Assay with Zosuquidar Co-treatment
A modified HiBiT lytic assay was used to assess the activity of zosuquidar on the BET degradation. […]
Luminescence was measured using the GloMax® Multiplex Luminescence and Fluorescence Protocol for 96-well plates. The luminescence signal for each well was normalised to the fluorescence signal and further normalised to the mean values from iPrOH-treated controls, then expressed as a ratio relative to the vehicle control. Curve fitting and DC50 values were determined in GraphPad Prism v.10.0.3 using nonlinear regression with a three-parameter logistic model to calculate DC50 values.
The stock solution of each test item was prepared from a 10mM stock in iPrOH, which was further diluted 1:50 with […] to obtain a 0.2 mM solution (4 µL of the test item stock solution is diluted with 196 µL DMSO) in insert vials. The samples were analysed on an HPLC system equipped with a HPLC-ThermoScientific Hypersil GOLD-C18 column (2.1 x 50 mm, 1.9 µm) and by MS detection using electrospray ionization (ESI) and Atmospheric Pressure Chemical Ionization (APCI) on a Shimadzu LCMS 2050. […]
of 1 mL/min and a column temperature of 40 °C. […] Data were analysed with Shimadzu Open Solution Data Browser to obtain the RTs of the peak for each individual compound and standards. […]

[3] = Plasma stability assay; format: in vitro ADME; conditions: mouse plasma; read-out: stability T1/2 in mouse plasma
Description: Frozen plasma was thawed at 37 °C and centrifuged at 3000 rpm for 8 min to remove clots, and the supernatant was used in the experiment. The pH of the plasma was recorded, and only the pH range between 7.4 and 8 was used. The plasma and compound solution were prewarmed to 37 °C. 10 µL of prewarmed testing compound or reference compound (procaine) solution (20 μM in 0.05 mM sodium phosphate buffer (pH 7.4) with 0.5% BSA) was mixed with 90 μL of plasma at different time points to allow for 5, 15, 30, 45, and 60 min of incubation time. For 0 min, the plasma was mixed with vehicle only. Acetonitrile was added to the compound and plasma mixture to quench the reaction, and the resulting mixture was centrifuged (5594g for 15 min). The

T1 sequence (P40337 whole entry): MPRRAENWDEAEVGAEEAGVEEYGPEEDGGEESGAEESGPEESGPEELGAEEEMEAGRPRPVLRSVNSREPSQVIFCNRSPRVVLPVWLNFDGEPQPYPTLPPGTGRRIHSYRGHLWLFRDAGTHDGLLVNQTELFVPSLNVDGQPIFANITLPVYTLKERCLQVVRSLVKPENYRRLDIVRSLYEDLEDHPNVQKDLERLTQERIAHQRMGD

| SMILES | AI (availability index = RBAPROTAC ÷ RBAVH298) [1] | RBA (relative binding affinity = IC50live ÷ IC50perm) [1] | fold lower potency in live-cell vs permeabilised-cell assay [1] [fold] | IC50 [1] [nM] | chromatographic logD [2] | half-life at 2 µM [3] [h] |
| --- | --- | --- | --- | --- | --- | --- |
| Cc1ncsc1-c1ccc(CNC(=O)[C@@H]2C[C@@H](O)CN2C(=O)[C@@H](NC(=O)CCCCCOCCOCCCCCC(=O)Nc2cccc3c2C(=O)N(C2CCC(=O)NC2=O)C3=O)C(C)(C)C)cc1 (some centres unmarked) [14a] | 4.2 | 4.4 | 4 | 1330 | 3.7 | 0.557 |
| Cc1ncsc1-c1ccc(CNC(=O)[C@@H]2C[C@@H](O)CN2C(=O)[C@@H](NC(=O)COCCOCCOCCOCCOCCOCC(=O)N[C@H](C(=O)N2C[C@H](O)C[C@H]2C(=O)NCc2ccc(-c3scnc3C)cc2)C(C)(C)C)C(C)(C)C)cc1 [CM11] | 1.4 | 1.4 |  | 450 | 3.2 | 3.9 |
